Laboratory results: patent US8324191B2, “Combined calcium, magnesium and vitamin D supplements” (Biolink Life Sciences, Inc, priority 2008, dated 2012)
Where two headings read alike, the source gives them in different places.

Tests used:
[1] = conventional magnesium salts; Firoz and Graber 2001; cited from earlier work
[2] = 250-750 mg magnesium daily as magnesium hydroxide, 2 years; cited from earlier work
[3] = cited from earlier work
[4] = doses of 1 g calcium citrate daily; cited from earlier work
[5] = 1 gram calcium/day as the citrate, 1,471 healthy older women; cited from earlier work
[6] = Availability of magnesium and lipoate ions from aqueous suspensions of the salt; type: physicochemical; conditions: aqueous solutions, pH about 4 to about 8
From the text: Thus, its bioavailability is unexpectedly high, as compared to conventional, water-insoluble magnesium salts. Further, R-(+)-alpha-lipoic acid is a widely distributed physiological antioxidant that combines free radical scavenging properties with an ability, after intracellular reduction to dihydrolipoic acid, to regenerate the levels of other nonenzymatic and enzymatic antioxidants, including glutathione (GSH), ascorbate, α-tocopherol, catalase and GSH peroxidase. The physiological form of R-(+)-α-lipoate, the R-(+)-enantiomer, is present in all eukaryotic and prokaryotic cells.

[7] = cited from earlier work; remark: listed apart in the source

In the case of `[Cl-].[Cl-].[Mg+2]` [Magnesium chloride], the “Bioavailability (as fractional absorption of administered dose)” value [1] is given as 12%.

For `[Mg+2].[OH-].[OH-]` [Magnesium hydroxide], the bone density [2] is listed as “significant increase in bone density”, the fractures [2] is listed as “prevented fractures” and the “Bioavailability (as fractional absorption of administered dose)” value [1] is listed as 4%.

In the case of `CC(O)C(=O)[O-].CC(O)C(=O)[O-].[Mg+2]` (stereo not drawn) [Magnesium lactate], the “Bioavailability (as fractional absorption of administered dose)” value [1] is listed as 12%.

For `[O]=[Mg]` [Magnesium oxide], the “Bioavailability (as fractional absorption of administered dose)” value [1] is given as 4%.

For `O=C(O)CCCCC1CCSS1` (stereo not drawn) [R-(+)-alpha-lipoic acid], the storage life ([3]; closed and sealed amber container at refrigerated temperatures) is listed as “within a few months”.

For `O=C(O)CCCCC1CCSS1` (stereo not drawn) [RS-Alpha-lipoic acid, RS-alpha-lipoic acid], the storage life ([3]; closed and sealed amber container at room temperature) is given as “a year or more”.

For `O=C([O-])CC(O)(CC(=O)[O-])C(=O)[O-].O=C([O-])CC(O)(CC(=O)[O-])C(=O)[O-].[Ca+2].[Ca+2].[Ca+2]` [calcium citrate], the “risk for myocardial infarction, stroke and death” value [4] is given as “increase risk”.

For `[Ca]` [calcium], the “effect on bone density” value [5] is listed as “beneficial effect on bone density”.

In the case of Magnesium R-(+)-alpha-lipoate, the “availability of magnesium and R-(+)-alpha-lipoate ions from suspensions” value [6] is reported as “available”.

For Magnesium citrate, the “Bioavailability (as fractional absorption of administered dose)” value [1] is given as 12%.

For vitamin D, the fracture benefit ([7]; 400 IU per day) is listed as “failed to demonstrate any fracture benefit”, the “reduction of risk of any non-vertebral fracture” value ([7]; 700 to 800 IU per day) is listed as 23% and the “reduction of risk of hip fracture” value ([7]; 700 to 800 IU per day) is listed as 26%.
